Measurements from patent publication US5591741A, “Fungicidal spiroheterocyclic derivatives” (American Cyanamid Company, priority 1993, dated 1997).

How the values were obtained:
Plasmopara viticola = assay: Antisporulant activity against vine downy mildew (PVA); assay type: in vivo; details: vine leaves, antisporulant foliar spray, 600 ppm, 750 l/ha
How it was run: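 Cabernet Sauvignon vines (~8 cm) inoculated on lower leaf surfaces with 5×10^4 zoosporangia/ml, held 24 h at 21° C high humidity then 24 h glasshouse. Infected leaves sprayed underside with 600 ppm compound in 1:1 water/acetone, 0.04% Tween 20, 750 l/ha; 96 h glasshouse, 24 h humidity. Sporulating leaf area rated versus control.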

Alternaria solani = assay: Activity against tomato early blight (AS); assay type: in vivo; details: Table VI; tomato seedlings, contact prophylactic foliar spray, 4 days
How it was run: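 Plants were challenged with A. solani conidia (10^4 spores/ml) 24 h after a protective foliar spray of compound in 50:50 acetone/water plus 0.04% Tween 20. Held humid at 21° C for 4 days, then percent leaf area with lesions was scored as a rating relative to controls.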

Botrytis cinerea = assay: Direct protectant activity against broad bean grey mould (BCB); assay type: in vivo; details: direct protectant foliar spray, 600 ppm, 4 days
How it was run: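 Protectant foliar test: lesion coverage assessed 4 days after inoculation and rated relative to untreated or diluent-sprayed plants. Compound applied at 600 ppm to cv The Sutton leaves 24 h before 10^6 conidia/ml suspension; incubation at 22 °C in high humidity.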

Leptosphaeria nodorum = assay: Activity against wheat leafspot (LN); assay type: in vivo; details: direct therapeutic foliar spray, 600 ppm, 6-8 days
How it was run: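 Therapeutic foliar spray: compound at 600 ppm applied to single-leaf wheat (cv Norman) 24 h after inoculation with 1.5×10^6 conidia/ml. Disease control scored after 6-8 days at 22° C and 70% humidity as lesions per leaf versus untreated or diluent-sprayed controls.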

[1] = tested on: Erysiphe graminis f.sp. hordei; assay: Activity against barley powdery mildew, direct therapeutic (EGT); assay type: in vivo; details: direct therapeutic foliar spray, 600 ppm, up to 7 days
How it was run: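 A curative spray at 600 ppm was applied to single-leaf Golden Promise barley inoculated with powdery mildew conidia the previous day. After up to 7 days at 18 °C and 40% humidity, disease control was rated from percent leaf area sporulating relative to untreated or diluent-sprayed controls.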

[2] = tested on: Erysiphe graminis f.sp. hordei; assay: Direct protectant activity against barley powdery mildew (EGP); assay type: in vivo; details: direct protectant foliar spray, 8 days
How it was run: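 Rating reflects percentage of leaf area with sporulation compared with untreated or diluent-sprayed controls. Protectant spray was applied to single-leaf barley (cv Golden Promise) 24 h before conidia inoculation. Plants were kept at 18 °C and 40% RH throughout, with 8 days of disease development.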

Phytophthora infestans = assay type: in vivo; details: tomato, direct protectant foliar spray
[3] = tested on: Pseudocercosporella herpotrichoides; assay: Activity against wheat eyespot in-vitro (PHI); assay type: cell-based; details: 10 ppm, 10 days, 20° C., mycelial growth
How it was run: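 Mycelial growth was scored after 10 days at 20 °C against untreated or diluent controls. The broth was half-strength potato dextrose, holding 10 ppm test compound (from acetone) and 5×10^4 fragments/ml of the eyespot fungus.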

Rhizoctonia solani = assay: Activity against Rhizoctonia in-vitro (RSI); assay type: cell-based; details: 10 ppm, 10 days, 20° C., mycelial growth
How it was run: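 Compound at a final 10 ppm (acetone vehicle) in half-strength PDB, inoculated with 5×10^4 fragments/ml of shaken-culture R. solani mycelium. After incubation at 20° C for 10 days, growth scored as a rating versus untreated or diluent-treated controls.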

Venturia inaequalis = assay: Activity against apple scab in-vitro (VII); assay type: cell-based; details: 10 ppm, 10 days, 20° C., mycelial growth
How it was run: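 V. inaequalis propagules (5×10^4/ml, malt agar-grown) were exposed in half-strength PDB to 10 ppm final test compound delivered in acetone. Growth was scored after incubation for 10 days at 20° C, as a rating relative to untreated or diluent-sprayed controls.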

Pyricularia oryzae = assay type: in vivo; details: rice seedlings, direct therapeutic foliar spray, 600 ppm, 4-5 days

Structure (SMILES)	disease control rating PVA (Plasmopara viticola)	disease control rating AS (Alternaria solani)	disease control rating BCB (Botrytis cinerea)	disease control rating LN (Leptosphaeria nodorum)	disease control rating EGT [1]	disease control rating EGP [2]	disease control rating PIP (Phytophthora infestans)	disease control rating PHI [3]	disease control rating RSI (Rhizoctonia solani)	disease control rating VII (Venturia inaequalis)	disease control rating PO (Pyricularia oryzae)
CCCCCN(CC(C)C)C1COC2(CCC(C(C)(C)C)CC2)C1 (centres unmarked) [Compound 75]	0 (less than 50% disease control)	0 (less than 50% disease control)	2 (greater than 80% disease control)	0 (less than 50% disease control)	2 (greater than 80% disease control)	2 (greater than 80% disease control)	0 (less than 50% disease control)	0 (less than 50% disease control)	0 (less than 50% disease control)	0 (less than 50% disease control)	0 (less than 50% disease control)
CCCCCCNC1COC2(CCC(C(C)(C)C)CC2)C1 (centres unmarked) [Compound 41]	0 (less than 50% disease control)	0 (less than 50% disease control)	0 (less than 50% disease control)	1 (about 50-80% disease control)	2 (greater than 80% disease control)	2 (greater than 80% disease control)	0 (less than 50% disease control)	1 (about 50-80% disease control)	0 (less than 50% disease control)	0 (less than 50% disease control)	0 (less than 50% disease control)
CCCN(CC1CCCCC1)C1COC2(CCC(C(C)(C)C)CC2)C1 (centres unmarked) [Compound 93]	0 (less than 50% disease control)	0 (less than 50% disease control)	0 (less than 50% disease control)	0 (less than 50% disease control)	2 (greater than 80% disease control)	2 (greater than 80% disease control)	2 (greater than 80% disease control)	0 (less than 50% disease control)	1 (about 50-80% disease control)	0 (less than 50% disease control)	0 (less than 50% disease control)
CCCN(CC(C)(C)C)C1COC2(CCC(C(C)(C)C)CC2)C1 (centres unmarked) [Compound 133]	0 (less than 50% disease control)	0 (less than 50% disease control)	0 (less than 50% disease control)	0 (less than 50% disease control)	2 (greater than 80% disease control)	2 (greater than 80% disease control)	0 (less than 50% disease control)	0 (less than 50% disease control)	0 (less than 50% disease control)	1 (about 50-80% disease control)	0 (less than 50% disease control)
CCCCCN(CCCCC)C1COC2(CCC(C(C)(C)CC)CC2)C1 (centres unmarked) [Compound 50]	0 (less than 50% disease control)	0 (less than 50% disease control)	0 (less than 50% disease control)	0 (less than 50% disease control)	2 (greater than 80% disease control)	2 (greater than 80% disease control)	0 (less than 50% disease control)	0 (less than 50% disease control)	0 (less than 50% disease control)	1 (about 50-80% disease control)	0 (less than 50% disease control)
CC(C)(C)C1CCC2(CC1)CC(N1CCC(c3ccccc3)CC1)CO2 (centres unmarked) [Compound 4]	0 (less than 50% disease control)	0 (less than 50% disease control)	0 (less than 50% disease control)	1 (about 50-80% disease control)	2 (greater than 80% disease control)	2 (greater than 80% disease control)	0 (less than 50% disease control)	1 (about 50-80% disease control)	0 (less than 50% disease control)	1 (about 50-80% disease control)	0 (less than 50% disease control)
CC(C)(C)C1CCC2(CC1)CC(NCC1CCCCC1)CO2 (centres unmarked) [Compound 82]	0 (less than 50% disease control)	0 (less than 50% disease control)	2 (greater than 80% disease control)	1 (about 50-80% disease control)	2 (greater than 80% disease control)	2 (greater than 80% disease control)	0 (less than 50% disease control)	0 (less than 50% disease control)	0 (less than 50% disease control)	0 (less than 50% disease control)	0 (less than 50% disease control)
CN(C1CCCCC1)C1COC2(CCC(C(C)(C)C)CC2)C1 (centres unmarked) [Compound 80]	0 (less than 50% disease control)	0 (less than 50% disease control)	1 (about 50-80% disease control)	1 (about 50-80% disease control)	2 (greater than 80% disease control)	2 (greater than 80% disease control)	2 (greater than 80% disease control)	0 (less than 50% disease control)	1 (about 50-80% disease control)	0 (less than 50% disease control)	1 (about 50-80% disease control)
CC1CN(C2COC3(CCC(c4ccccc4)CC3)C2)CC(C)O1 (centres unmarked) [Compound 58]	0 (less than 50% disease control)	0 (less than 50% disease control)	0 (less than 50% disease control)	2 (greater than 80% disease control)	2 (greater than 80% disease control)	2 (greater than 80% disease control)	0 (less than 50% disease control)	0 (less than 50% disease control)	0 (less than 50% disease control)	1 (about 50-80% disease control)	0 (less than 50% disease control)
CCCCCN(CC)C1COC2(CCC(C(C)(C)C)CC2)C1 (centres unmarked) [Compound 72]	0 (less than 50% disease control)	0 (less than 50% disease control)	0 (less than 50% disease control)	0 (less than 50% disease control)	2 (greater than 80% disease control)	2 (greater than 80% disease control)	0 (less than 50% disease control)	0 (less than 50% disease control)	0 (less than 50% disease control)	1 (about 50-80% disease control)	0 (less than 50% disease control)
